Patent US6596878B2, “Methods and compositions for inhibiting cell proliferative disorders” (Yissum Research & Development Company of the Hebrew …, priority 1994, dated 2003)

How the values were obtained:
SKBR3 cells = test: SKBR3 growth assay (sulphorhodamine B); format: cell-based; conditions: Homo sapiens, SK-BR-3, 96 h; Table V; 4 days, SRB; read-out: Estimated IC50 Growth Assays SKBR3 cells
From the text: (§1) This example illustrates the ability of the exemplary compounds to inhibit receptor tyrosine kinases, such as HER2 and/or EGFR. The following target cells were used for cellular kinaseassays: NIH3T3 clone C7 (Honegger et al., supra) engineered to over-express human EGF receptor; NIH3T3 cells engineered to over-express a chimeric receptor containing the EGFR extracellular domain and the HER2 intracellular kinase domain; the human mammary carcinoma line BT474 (ATCC HTB2) expressing HER2; and the human glioblastoma line U1242 that expresses PDGFR-β. Growth assays were carried out using human mammary epithelial SKBR3 (ATCC HTB30) cells, SKOV3 (ATCC HTB77) human ovarian cancer cell line, A431 cells, MCF7 human breast carcinoma cells, MCF7 cells overexpress the HER2 kinase (MCF7-HER2), NIH3T3 cells, and NIH3T3 cells overexpressing the HER2 kinase (3T3-HER2).
SKBR3 cells over-express HER2. A431 cells over-express EGFR. These cells were dispensed into 96-well plates with test compounds. After 4 days the monolayers were TCA-fixed then stained with sulphorhodamine B. The absorbance versus log drug concentration was plotted and IC50 values estimated.
(4) Tris, crystallized free base—Fisher Catalog #BP152 Working solution: 10 mM tris=1.211 gram Trizma base/liter H2O.
(5) Aspirate growth media from 96 well plate containing control cells or cell treated with compounds, rinse wells 2 or 3 times with PBS and layer 200 μl cold 10% TCA onto each well. Fix cells for 60 minutes at 4° C.
(6) Discard TCA and rinse wells 5 times with distilled H2O. Dry plate upside down on paper towel.
(7) Stain fixed cells for 10 minutes with 100 μl 0.4% SRB per well.
(8) Pour off SRB solution and rinse wells 5 times with 1% acetic acid.
(9) Dry plate upside down on paper towel.
(10) After wells are completely dry, solubilize dye with 100 μl 10 mM Tris base per well for 5-10 minutes on titer plate shaker.
(11) Read optical density at dual wavelength mode 570 nm and 630 nm on Dynatech ELISA plate reader, Model MR 5000.

SKOV3 cells = test: SKOV3 soft agar colony growth assay; format: cell-based; conditions: Homo sapiens, SK-OV-3, 336 h, Table V, colony growth 2 weeks, read-out: Estimated IC50 Growth Assays SKOV3 cells
From the text: as §1
SKOV3 cells also over-express HER2. These cells were plated into soft agar with a test compound and colony growth was quantified 2 weeks. later using an Omnicon colony counter.
6. Soft Agar Assay Protocol
The soft agar assay is well known in the art as a method for measuring the effects of substances on cell growth. Unless otherwise stated the soft agar assays were carried out as follows:
(1) A Water bath set at 39° C. and another water bath at 37° C.
(2) 2×assay medium is comprised of 2×Dulbecco's Modified Eagle's Medium (DMEM) (Gibco Cat. #CA400-4ANO3) supplemented by the following:
20% Fetal Bovine Serum (FBS)
Non-essential Amino Acids (1:50 from 100×stock)
(3) 1×assay medium made of 1×DMEM supplemented with 10% FBS, 1 mM sodium pyruvate, 2 mM glutamine, 10 mM HEPES, non-essential amino acid (1:100 from 100×stock).
(4) 1.6% SeaPlaque Agarose in autoclave bottle
(5) Sterile 35 mm Corning plates (FMC Bioproducts Cat. #50102)
(6) Sterile 5 ml glass pipets (individually wrapped)
(7) Sterile 15 ml and 50 ml conical centrifuge tubes
(8) Pipets and sterile tips
(9) Sterile microcentrifuge tubes
(10) Cells in T75 flasks: SKOV-3 (ACTT HTB77).
(12) Procedure for making the base layer:
(a) Have all the media warmed up in the 37° C. water bath.
(b) To make 1×of assay medium+0.8% agar: make a 1:2 (vol:vol) dilution of melted agar (cooled to 39° C.), with 2×assay medium.
(c) Keep all media with agar warm in the 39° C. water bath when not in use.
(d) Dispense 1 ml of 1×assay medium+0.8% agar into dishes and gently swirl plate to form a uniform base layer. Bubbles should be avoided.
(e) Refrigerate base layers to solidify (about 20 minutes). Base layers can be stored overnight in the refrigerator.
(13) Procedure for collecting cells:
(a) Take out one flask per cell line from the incubator; aspirate off medium; wash once with PBS and aspirate off; add 3 ml of trypsin solution. […]
(d) Colonies that are 60 microns and larger are scored positive.

Compound | IC50 (SKBR3 cells) | IC50 (SKOV3 cells)
CC(C)(C)c1cc(/C=C(\C#N)C(N)=S)cc(C(C)(C)C)c1O [Compound M11] | 4 µM | 0.5 µM
N#C/C(=C\c1ccc(O)c(O)c1)C(=S)NCc1ccccc1 [Compound M13] | 25 µM | 20 µM
N#C/C(=C\c1ccc(O)c(O)c1)C(=O)Nc1cccc(C(F)(F)F)c1 [Compound M15] | 20 µM | 17 µM
N#C/C(=C\c1cc(O)c(O)c(I)c1)C(=O)NCCCc1ccccc1 [Compound M16] | 9 µM | 4.5 µM
